The source of these data is patent US20240238417A1, “METHODS OF PRODUCING TUMOR VACCINES AND USES THEREOF” (priority 2021, published 2024).

Data set [1] concerns CT26 tumor. The data set can be described thus: Local gNO treatment of CT26 tumor bearing mice, primary tumor. The format is in vivo. The procedure:
Mice: All in vivo experimental procedures were carried out in accordance with the protocol approved by the Ethics Committee on the Use and Care of Animals. Institutional Animal Care and Use Committee (IACUC): 67-09-2019 and IL-20-3-149. The in vivo assays were performed on Balb/c or C57BU6J mice: 7-10 weeks of age, obtained from Envigo (Ness-Ziona, Israel), unless otherwise indicated.
Inoculation of tumor cells: Cancer cell suspensions at a concentration of 2.5-10.0×10^6 cells/ml were inoculated to the right flank of mice at a dose volume of 0.1 ml. Administration was performed as soon as possible following cell suspension preparation and after manual shaking prior to inoculation. The cell suspension was then aspirated into a 1-ml syringe with a 27G needle for subcutaneous (s.c.) injection.
Test article treatment: Mice were first anesthetized by an intraperitoneal (i.p) injection of 100 mg/kg ketamine and 20 mg/kg xylazine hydrochloride solution. After 10 minutes, tumor-bearing mice were treated with the indicated dose of gNO.
In all protocols, the gas was delivered from NO in N2 cylinders. The outlet pressure was set to 2-3.5 bar using a pressure regulator that was connected directly to the cylinder.
In protocols that involve administration by needle injection, a silicone hose was connected directly to the pressure regulator on one end and to a manual or digital MFC on the other end. The flow was adjusted to 0.05 LPM-0.25 LPM. An additional silicone hose was connected to the flow controller as well as to a 23G hypodermic needle. The needle was inserted horizontally into the center of each tumor.
Tumor volume calculation: Local tumor growth was determined by measuring 3 mutually orthogonal tumor dimensions 2-3 times per week, according to the following formula:
or Tumor volume=Diameter 1× Diameter 2^2/2, unless otherwise indicated. Diameter 1 represents length, Diameter 2 represents width and Diameter 3 represents height.
BALB/c female and male mice were obtained from Almog Diagnostic that purchased them from Envigo, Israel. The mice were 7-8 weeks of age. Animal care and experimentation were performed in accordance with the Bar-Ilan University guidelines.
CT-26, a colon carcinoma cell line was induced in a BALB/c mouse by chemical carcinogenesis.
Cells were cultured in Roswell Park Memorial Institute (RPMI) 1640 supplemented with 100 U/ml penicillin, 100 μg/ml streptomycin, 2 mM L-glutamine; 1 mM sodium pyruvate; 1% non-essential amino acid solution; 10% fetal calf serum. Cultures were maintained at 37° C. in a humidified incubator with a 5% CO2 atmosphere.
Mice were inoculated subcutaneously with 5×10^5 CT-26 cells suspended in 100 μL Hank's Balanced Salt Solution (HBSS) into the low lateral side of the back. Local tumor growth was determined by measuring two mutually orthogonal tumor diameters with a caliper. The volume of the tumor was calculated using the formula: Vol=D1×D2×D2/2, where D1, D2 are two mutually orthogonal tumor diameters.
Air-1 is a female Balb/c mouse that was treated twice. On day 0 the tumor volume was 64.85 mm^3.
NO-1 is a female Balb/c mouse and was treated once. […] Then, the skin was removed from the tumor, and the tumor was re-exposed to gNO via a perforated flask filled with gNO using the same parameters.
NO-2 is a male Balb/c mouse and was treated 3 times. On day 0 the tumor volume was 38.51 mm^3. Day 0—gNO at 50,000 ppm was administered for 3.8 minutes at a flow rate of 0.9 using a cap. Day 5: gNO at 10,000 ppm was administered for 30 minutes using a cap. Then, gNO was delivered intra-tumorally by a 23G needle such as shown in FIG. 11B at 0.3 LPM for another 10 minutes, using an intra-tumoral channel. The tip of the needle was directed at the outside area. Day 11: gNO at 10,000 ppm was delivered to the tumor for 5 minutes and at a flow rate of 0.3 LPM, using a 23G needle and an intra-tumoral channel.
In an additional set of experiments, aluminum disposable gas cylinders were used. […]

Data set [2] deals with LLC1 cells. The data set is described as follows: XTT viability of LLC1 cells after gas exposure in chamber. The format is cell-based. To be noted: 10,000 ppm-25,000 ppm gNO for 3-15 minutes. The procedure:
In vitro systems: One system involves a direct exposure of cancer cells to gNO in 96-well plate. Gaseous NO at 150 ppm-50,000 ppm was delivered at 0.3 LPM for 10 seconds—3 minutes. In another system, cancer cells were exposed to gNO in a box made of acrylic glass. Gaseous NO at 10,000-50,000 ppm was delivered at 0.9 LPM for 10 seconds—15 minutes.
The exposure of the cancer cells to gNO was done after removing the cell culture medium.
(§1) Immediately after gas exposure, cell culture medium was added, and the cells were incubated at a 37° C. and 5% CO2 incubator over-night. To test cell viability, XTT assay and Annexin V-Propidium Iodide assays were performed, according to known protocols.
The effect of continuous gaseous nitric oxide (gNO) at 10,000 ppm, 15,000 ppm, 20,000 ppm, or 25,000 ppm, compared to air (control), on the survival of LLC1 cancer cell line was tested. LLC1 cells were prepared in DMEM medium and suspended in 96-well plates. The plates were placed inside an approx. 2 liter exposure chamber. The plates were exposed to the gas by filling the chamber with gNO for 10 seconds, or 1, 3, 9 or 15 minutes. After exposure, the plates were placed in a 5% CO2, 37° C. incubator for an overnight incubation and the viability of the cells was tested by XTT assay.
In general terms: Formazan colour is commonly taken as a measure of viable cells.

Data set [3] relates to LLC1 cells. The data set can be described thus: Annexin V-Propidium Iodide apoptosis-necrosis assay of LLC1 cells. The format is cell-based. The conditions noted are these: 20,000 ppm or 50,000 ppm gNO for 3 minutes, overnight incubation. The procedure:
as §1
In an additional set of experiments, the plates were exposed to the gas (at 20,000 ppm or 50,000 ppm) by filling the chamber with gNO for 3 minutes. After exposure, the plates were placed in a 5% CO2, 37° C. incubator for an overnight incubation and the viability of the cells was tested via Annexin V—Propidium Iodide apoptosis-necrosis assay.

Molecule `[N]=O` [gNO, nitric oxide] returned a CT-26 tumor destruction in data set [1] (10,000 ppm gNO, 0.9 LPM, 20 minutes in flask, 1-17 days post treatment) of 100%. Moreover, the “tumor on photographs after treatment” value is reported as “the tumor was destructed” in data set [1] (10,000 ppm gNO, 0.9 LPM, 20 minutes in flask, 1 minute, 9 days and 14 days post treatment); “the tumor disappeared” in data set [1] (200,000 ppm gNO for 2 seconds, 0.01 LPM, 9 days after treatment). For the same molecule, the cured mice in data set [1] (25,000 ppm gNO intra-tumoral 15 minutes, 0.25 LPM, repeated a week later, 44 days post the first treatment) worked out at 50%. Moreover, the “mice with CT-26 tumor growth inhibition compared to air treatment” value in data set [1] (50,000 ppm intra-tumoral 2-3 minutes 0.2 LPM, then 10,000 ppm 6 minutes intra-tumoral and 4 minutes to outer layer) was “⅔”. The “size of air-treated tumor relative to gNO-treated tumors” value in data set [1] (CT26 tumors, 10,000-50,000 ppm gNO (mice NO-1, NO-2), 12 days post treatment 1) is “more than 30 times”. For the same molecule, in data set [2], the “viability of LLC1 cells” value is “less than 5%”. Also, the “LLC1 cells at late apoptosis” value in data set [3] is on record as 80%-90%.
